The values that follow come from patent US20230212129A1, “QUINAZOLINE DERIVATIVES USEFUL AS SELECTIVE HDAC6 INHIBITORS” (AnnJi Pharmaceutical Co., Ltd., priority 2020, published 2023).

Series [1] addresses T1, HDAC1 (Homo sapiens, UniProt Q13547).
T1 construct: GST (C); host or cells: baculovirus expression system, Sf9 insect cells (SP9 [sic])
As to the kind of experiment: HDAC1 activity, acetylated-AMC-labeled peptide substrate. Type of series: biochemical. As for the experimental part: (§1) The activities of HDAC 1 and 6 were measured by using an acetylated-AMC-labeled peptide substrate, a fluorogenic peptide from p53 residues 379-382 (RHIKKAc). The proteins involved in the assay are as the followings (1) Human HIDAC1 (Genflank Accession No. NM_004964): Full length with C-terminal GST tag, MW=79.9 kDa, expressed by baculovirus expression system in SP9 cells; and (2) Human HIDAC6 (Genflank Accession No. BC069243): Full length with N-terminal GST tag, MW=159 kDa, expressed by baculovirus expression system in Sf9 cells.

Series [2] in a line: Oral pharmacokinetics (Table II). To be noted: in vivo; for AUC: unit inferred. Further details: AUC: concentration or dose not given beside the values.
Series [3] has as its target T2, HDAC6 (Homo sapiens, UniProt Q9UBN7).
T2 construct: GST (N); host or cells: baculovirus expression system, Sf9 insect cells
T2 sequence (Q9UBN7 1-1215): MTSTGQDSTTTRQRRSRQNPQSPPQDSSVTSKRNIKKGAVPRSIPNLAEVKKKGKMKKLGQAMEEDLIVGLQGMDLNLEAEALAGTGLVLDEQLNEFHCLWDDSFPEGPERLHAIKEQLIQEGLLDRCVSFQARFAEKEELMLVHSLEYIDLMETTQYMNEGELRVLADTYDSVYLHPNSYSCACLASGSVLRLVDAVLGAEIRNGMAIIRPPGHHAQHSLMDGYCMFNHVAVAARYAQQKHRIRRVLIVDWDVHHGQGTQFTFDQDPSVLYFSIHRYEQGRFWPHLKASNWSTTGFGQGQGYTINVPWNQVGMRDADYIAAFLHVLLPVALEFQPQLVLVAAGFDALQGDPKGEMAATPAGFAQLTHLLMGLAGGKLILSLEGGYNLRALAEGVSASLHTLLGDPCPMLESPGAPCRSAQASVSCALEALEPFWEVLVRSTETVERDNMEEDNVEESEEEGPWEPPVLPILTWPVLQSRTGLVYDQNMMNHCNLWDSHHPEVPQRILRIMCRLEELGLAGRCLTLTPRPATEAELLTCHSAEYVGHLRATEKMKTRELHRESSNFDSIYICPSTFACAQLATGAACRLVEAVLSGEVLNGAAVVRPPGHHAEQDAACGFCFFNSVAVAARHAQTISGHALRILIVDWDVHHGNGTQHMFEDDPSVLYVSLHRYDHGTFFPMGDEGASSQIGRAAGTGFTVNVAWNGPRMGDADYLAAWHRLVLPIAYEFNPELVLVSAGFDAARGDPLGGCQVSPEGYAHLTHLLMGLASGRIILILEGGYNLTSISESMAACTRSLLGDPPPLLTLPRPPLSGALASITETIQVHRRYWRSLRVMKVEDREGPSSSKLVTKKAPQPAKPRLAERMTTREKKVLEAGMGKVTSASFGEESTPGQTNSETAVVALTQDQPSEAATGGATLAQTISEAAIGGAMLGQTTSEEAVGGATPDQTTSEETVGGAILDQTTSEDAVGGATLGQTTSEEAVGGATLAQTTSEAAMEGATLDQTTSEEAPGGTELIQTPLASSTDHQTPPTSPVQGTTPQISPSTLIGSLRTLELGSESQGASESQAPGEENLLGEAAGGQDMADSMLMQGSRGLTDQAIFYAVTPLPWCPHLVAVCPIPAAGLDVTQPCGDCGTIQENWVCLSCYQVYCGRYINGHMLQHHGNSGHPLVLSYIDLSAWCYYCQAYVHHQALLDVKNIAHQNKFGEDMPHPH
In words: HDAC6 activity, acetylated-AMC-labeled peptide substrate. It counts as biochemical. To be noted: for HDAC6 selectivity (A)/(B): HDAC1 IC50 / HDAC6 IC50; for IC50: read-out: HDAC6 IC50 (B). As for the experimental part:
as §1

The subject of series [4] is cisplatin-induced neuropathy. As to the kind of experiment: Cisplatin-induced neuropathy, von Frey paw-withdrawal murine model. To be noted: oral once daily Day 16 to 29 (pregabalin 15 mg/kg one hour prior to test); vs cisplatin control; FIG. 4. It counts as in vivo, Balb/c mice. As for the experimental part: To understand whether COMPOUND 2 exerts neuron protective activities in cisplatin-induced neuropathy, a paw-withdrawal murine model is deployed. The 50% paw withdrawal threshold (PWT) to a static mechanical stimulus was assessed using von Frey filament and up-and-down method following the procedure described by Chaplan (1994). Mechanical allodynia, a painful sensation caused by innocuous stimuli like light touch, was assessed by the manual von Frey test once per week (on day 7, 14, 21, 28, […], and 42). The animals indicated sensation by pulling back its paw. The minimum force leading to withdrawal of the paw was regarded as the reflex threshold.
Balb/c mice weighing about 25±2 gram were given cisplatin intraperitoneally at the dose of 1.5 mg/kg for 5 consecutive days (cumulative dose of 7.5 mg/kg), followed by 5 days of recovery. The cisplatin administration cycle was repeated once more to reach a cumulative dose of 15 mg/kg to induce neuropathy. Test compounds, COMPOUND 2 and ACY1215, were orally administered once daily for 2 weeks (except for the weekends) from Day 16 to 29. Pregabalin, a drug known to provide transient pain relief, was administered at a dose of 15 mg/kg prior to each von Frey stimulus test to serve as the positive control.

Series [5] relates to paclitaxel-induced peripheral neuropathy. In words: Paclitaxel-induced peripheral neuropathy, Von Frey test. It counts as in vivo, Sprague-Dawley (SD) rats. To be noted: for mean withdrawal force threshold: 15 mg/kg one hour prior to test, mean±SEM. Here is the method: Male Sprague-Dawley (SD) rats, weighing 320±30 grams, were given paclitaxel intraperitoneally at the dose of 6 mg/kg for 5 consecutive days with a total cumulative dose of 30 mg/kg to induce chemotherapy-induced peripheral neuropathy.
Compound 2 or vehicle was administered orally once daily for 2 weeks during the weekdays (Days 8 to 12 and 15-19). Mechanical allodynia is assessed by the manual Von Frey test once per week. The animals are given 20 to 30 minutes to acclimatize prior to the testing. The paw is pressed with a series of 8 manual Von Frey monofilaments with logarithmically incremental stiffness [3.61 (0.4 g), 3.84 (0.6 g), 4.08 (1.0 g), 4.31 (2.0 g), 4.56 (4.0 g), 4.93 (8.0 g), 5.18 (15.0 g) and (26.0 g)]. The manual Von Frey monofilament was applied perpendicularly from underneath the mesh floor to the central plantar surface with sufficient force to cause a slight buckling against the paw, and held for approximately 6-8 seconds. A positive response was noted if the paw is sharply withdrawn; ambulation is considered an ambiguous response, and in such cases, the stimulus is reapplied. The 50% paw withdrawal threshold (PWT) to a static mechanical stimulus was assessed using Von Frey filament and up-and-down method.
Von Frey data were presented as mean±SEM (Standard Error of the Mean). Treatment groups were compared to the paclitaxel control using Student's T-test. A p value <0.05 is considered to represent a significant difference.

Series [6] relates to Rat DRG cells. In words: Cisplatin-induced neurite degeneration in DRG cells. To be noted: 0.3 μM with 0.5 mM cisplatin, 48 hours; p<0.05; FIG. 3. It counts as cell-based. As for the experimental part:
Rat DRG cells were used to investigate the protective effect of HDAC6 inhibitors. DRG cells were treated with 0.5 mM of cisplatin with or without 0.3 μM of COMPOUND 2 or ACY1215 for 48 hours. The neurite area and the number of blebs (cell apoptosis) per image were calculated and their ratio values among the tested groups were compared and shown in FIG. 3.

The subject of series [7] is acetylated α-tubulin (Ac-α-tub). In words: Western blot of acetylated α-tubulin in primary DRG cells. Type of series: cell-based, C57BL/6J mice. To be noted: 48 hours of treatment, FIG. 2. As for the experimental part:
(§2) To investigate the effect of HDAC6 inhibitors in neuron protection and neuron regeneration, the recovery of dorsal root ganglion (DRG) cells post-paclitaxel injury was tested. Dorsal root ganglion was extracted from 7 week-old female C57BL/6J mice and incubated with HDAC6 inhibitors (compounds COMPOUND 33, COMPOUND 34, or COMPOUND 2) at the concentrations of 0.1 μM and 1 μM, or 100 ng/ml of BDNF, a neuronal growth factor (positive control), for 24 hours prior to a 24-hour incubation of 0.1 μM paclitaxel.

Series [8] deals with dorsal root ganglion (DRG) cells. As to the kind of experiment: DRG neurite outgrowth after paclitaxel-induced damage. It counts as cell-based, C57BL/6J mice. To be noted: 0.1 μM and 1 μM, 24 hours prior to 24-hour 0.1 μM paclitaxel; FIG. 1. As for the experimental part: as §2
The neurite was stained by pIII-tubulin.

T1 sequence (Q13547 whole entry): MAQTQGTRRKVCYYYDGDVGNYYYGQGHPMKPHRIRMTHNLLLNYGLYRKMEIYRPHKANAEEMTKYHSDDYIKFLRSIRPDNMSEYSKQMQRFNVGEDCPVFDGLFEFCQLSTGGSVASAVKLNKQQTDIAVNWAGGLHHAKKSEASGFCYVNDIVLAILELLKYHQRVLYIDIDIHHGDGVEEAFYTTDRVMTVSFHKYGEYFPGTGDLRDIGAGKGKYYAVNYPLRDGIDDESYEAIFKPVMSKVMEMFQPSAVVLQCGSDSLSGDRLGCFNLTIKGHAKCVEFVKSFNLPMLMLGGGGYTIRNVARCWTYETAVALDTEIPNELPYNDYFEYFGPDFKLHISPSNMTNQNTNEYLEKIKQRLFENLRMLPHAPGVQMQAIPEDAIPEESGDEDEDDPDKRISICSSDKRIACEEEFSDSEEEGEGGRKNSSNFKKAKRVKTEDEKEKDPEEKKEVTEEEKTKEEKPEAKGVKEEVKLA

In turn, `Cc1cccc(C)c1-n1c(C)nc2cc(F)c(/C=C/C(=O)NO)cc2c1=O` [Compound 1, (E)-3-(3-(2,6-dimethylphenyl)-7-fluoro-2-methyl-4-oxo-3,4-dihydroquinazolin-6-yl)-N-hydroxyacrylamide] had a concentration for half-maximal inhibition (IC50) in series [1] of 3940 nM. In series [2], this compound returned a Cmax of 4130 ng/mL and an AUC of 5830 ng·h/mL. Further, in series [3], the “HDAC6 selectivity (A)/(B)” value worked out at 328 and the IC50 was found to be 12 nM.

For `CC(C)C[C@H](CN)CC(=O)O` [Pregabalin, reference compound], in series [4], the “mean withdrawal threshold (50% PWT)” value is given as “increased withdrawal threshold”. The “mean withdrawal force threshold” value was determined as 24.1 ± 3.45 g in series [5] (Day 14) and 26 ± 0 g in series [5] (Day 21). The “pain-relief after dosing was stopped” value in series [5] (FIG. 7) is “failed to show the efficacy”.

For `CCc1nc2c(F)cc(/C=C/C(=O)NO)cc2c(=O)n1-c1c(C)cccc1C` [Compound 11, (E)-3-(3-(2,6-dimethylphenyl)-2-ethyl-8-fluoro-4-oxo-3,4-dihydroquinazolin-6-yl)-N-hydroxyacrylamide], the IC50 in series [1] came to 6900 nM. In series [2], the Cmax was found to be 727 ng/mL and the AUC was determined as 7180 ng·h/mL. For the same compound, in series [3], the “HDAC6 selectivity (A)/(B)” value stood at 43 and the IC50 was determined as 159 nM.

As to `O=C(CCCCCCNC(=O)c1cnc(N(c2ccccc2)c2ccccc2)nc1)NO` [ACY-1215, reference compound], the “mean withdrawal threshold (50% PWT)” value in series [4] was “not ACY1215, Reverses Cisplatin-Induced Neuropathy”. Besides, in series [6], the “neurite degeneration (neurite area and number of blebs ratio)” value was “significantly lesser degree of neurite degeneration”.

`Cc1ccccc1-n1c(C)nc2cc(F)c(/C=C/C(=O)NO)cc2c1=O` [Compound 44] had an IC50 in series [1] of 2580 nM. In series [2], this compound came in with a Cmax of 719 ng/mL and an AUC of 5720 ng·h/mL. In series [3], the “HDAC6 selectivity (A)/(B)” value came to 129 and the IC50 amounted to 20 nM.

`CCc1nc2cc(F)c(/C=C/C(=O)NO)cc2c(=O)n1-c1cccc(C)c1C` [Compound 22, (E)-3-(3-(2,3-dimethylphenyl)-2-ethyl-7-fluoro-4-oxo-3,4-dihydroquinazolin-6-yl)-N-hydroxyacrylamide] came in with an IC50 in series [1] of 4240 nM. Besides, in series [2], the concentration peaked (Cmax) at 3330 ng/mL and the AUC turned out to be 9920 ng·h/mL. In series [3], the “HDAC6 selectivity (A)/(B)” value is on record as 77 and the IC50 was found to be 55 nM.

In series [1], `CCc1nc2cc(F)c(/C=C/C(=O)NO)cc2c(=O)n1-c1ccc(Br)cc1C` [Compound 6, (E)-3-(3-(4-bromo-2-methylphenyl)-2-ethyl-7-fluoro-4-oxo-3,4-dihydroquinazolin-6-yl)-N-hydroxyacrylamide] gave an IC50 of 5100 nM. In series [2], this compound had a Cmax of 3630 ng/mL and an AUC of 42600 ng·h/mL. In addition, in series [3], the “HDAC6 selectivity (A)/(B)” value is recorded as 85 and the IC50 amounted to 60 nM.

Take `CCc1nc2cc(F)c(/C=C/C(=O)NO)cc2c(=O)n1-c1ccc(OC)cc1C` [Compound 34, (E)-3-(2-ethyl-7-fluoro-3-(4-methoxy-2-methylphenyl)-4-oxo-3,4-dihydroquinazolin-6-yl)-N-hydroxyacrylamide]: in series [1], half-maximal inhibition (IC50) was put at 4550 nM. In addition, in series [2], the highest concentration (Cmax) turned out to be 873 ng/mL and the AUC amounted to 11000 ng·h/mL. In series [7], the tubulin hyperacetylation result is “tubulin hyperacetylation”. Besides, in series [3], the “HDAC6 selectivity (A)/(B)” value is listed as 175 and the IC50 came out at 26 nM. For the same compound, the neurite outgrowth result in series [8] is “significantly rescued the neurite outgrowth”.

As for `CCc1nc2cc(F)c(/C=C/C(=O)NO)cc2c(=O)n1-c1ccc(F)cc1C` [Compound 26, (E)-3-(2-ethyl-7-fluoro-3-(4-fluoro-2-methylphenyl)-4-oxo-3,4-dihydroquinazolin-6-yl)-N-hydroxyacrylamide], in series [1], the midpoint of inhibition, the IC50, lay at 4320 nM. In series [2], this compound yielded a Cmax of 2680 ng/mL and an AUC of 12000 ng·h/mL. Further, in series [3], the “HDAC6 selectivity (A)/(B)” value stood at 180 and the IC50 was found to be 24 nM.
